Measured values: ChEMBL document CHEMBL4229347, “Design, synthesis, and biological evaluation of novel ubiquitin-activating enzyme inhibitors” (2018)
Calls of active or inactive are those of the source. The rule behind the calls is not given here.

Legend:
[1] = biological target: Ubiquitin-conjugating enzyme E2 D2 (Homo sapiens) (UniProt P62837); experiment: Inhibition of E2 (unknown origin) assessed as reduction in biotin-labelled ubiquitin-E2 conjugate formation at 10 to 1000 uM pretreated for 30 mins followed by biotin-labelled ubiquitin addition and measured after 60 mins in presence of E1 by Western blot analysis
Ubiquitin-conjugating enzyme E2 D2 (Homo sapiens), sequence (P62837 whole entry, looked up): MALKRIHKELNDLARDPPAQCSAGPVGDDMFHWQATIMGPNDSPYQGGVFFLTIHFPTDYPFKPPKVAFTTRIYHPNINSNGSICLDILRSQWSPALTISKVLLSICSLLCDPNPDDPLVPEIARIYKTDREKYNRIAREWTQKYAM

[2] = biological target: T1, Ubiquitin-like modifier-activating enzyme 1 (Homo sapiens) (UniProt P22314); experiment: Inhibition of recombinant human E1 expressed in Escherichia coli BL21(DE3) assessed as reduction in biotin-labelled ubiquitin-E1 conjugate formation up to 1000 uM pretreated for 30 mins followed by biotin-labelled ubiquitin addition and measured after 30 mins by Western blot analysis
T1 sequence (whole entry): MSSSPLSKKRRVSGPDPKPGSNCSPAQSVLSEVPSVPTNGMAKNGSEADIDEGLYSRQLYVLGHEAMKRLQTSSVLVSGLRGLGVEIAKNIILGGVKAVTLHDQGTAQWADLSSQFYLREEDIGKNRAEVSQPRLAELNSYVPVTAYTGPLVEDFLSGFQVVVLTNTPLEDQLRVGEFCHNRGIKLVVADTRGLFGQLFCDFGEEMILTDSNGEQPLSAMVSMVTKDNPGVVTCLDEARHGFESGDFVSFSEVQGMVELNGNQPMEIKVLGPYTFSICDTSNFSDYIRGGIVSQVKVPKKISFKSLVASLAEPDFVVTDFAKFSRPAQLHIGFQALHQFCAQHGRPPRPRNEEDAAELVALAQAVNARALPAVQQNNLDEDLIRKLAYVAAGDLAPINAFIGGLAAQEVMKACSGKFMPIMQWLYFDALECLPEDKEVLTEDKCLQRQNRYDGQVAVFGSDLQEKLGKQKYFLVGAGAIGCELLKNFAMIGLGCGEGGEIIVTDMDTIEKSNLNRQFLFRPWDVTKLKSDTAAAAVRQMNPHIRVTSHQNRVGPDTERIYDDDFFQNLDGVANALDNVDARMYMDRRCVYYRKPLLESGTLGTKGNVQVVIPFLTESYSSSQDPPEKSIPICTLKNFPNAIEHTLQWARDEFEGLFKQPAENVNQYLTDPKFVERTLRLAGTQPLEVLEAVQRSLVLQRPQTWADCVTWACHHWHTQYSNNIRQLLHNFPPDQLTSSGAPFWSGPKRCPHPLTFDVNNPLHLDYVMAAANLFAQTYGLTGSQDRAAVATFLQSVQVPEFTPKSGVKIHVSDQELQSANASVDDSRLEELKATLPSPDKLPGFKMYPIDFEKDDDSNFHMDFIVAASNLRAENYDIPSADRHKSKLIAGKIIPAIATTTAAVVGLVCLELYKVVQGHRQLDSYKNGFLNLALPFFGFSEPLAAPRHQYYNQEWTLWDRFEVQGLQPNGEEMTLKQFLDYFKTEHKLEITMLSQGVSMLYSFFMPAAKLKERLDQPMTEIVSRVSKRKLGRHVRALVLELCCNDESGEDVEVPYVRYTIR

[3] = biological target: T1, Ubiquitin-like modifier-activating enzyme 1 (Homo sapiens); experiment: (§1) Reversible inhibition of recombinant human E1 expressed in Escherichia coli BL21(DE3) assessed as reduction in biotin-labelled ubiquitin-E1 conjugate formation at 100 uM pretreated for 60 mins followed by 2.5 uM biotin-labelled ubiquitin addition for 30 mins and subsequent 5 uM biotin-labelled ubiquitin addition by Western blot analysis
MCF7 = experiment: Growth inhibition of human MCF7 cells after 72 hrs by alamar blue assay; assay type: functional; settings: MCF7, 72 h
[4] = biological target: T1, Ubiquitin-like modifier-activating enzyme 1 (Homo sapiens); experiment: as §1, with “ubiquitin addition measured after 30 mins by Western” for “ubiquitin addition by Western”
[5] = biological target: T1, Ubiquitin-like modifier-activating enzyme 1 (Homo sapiens); experiment: Inhibition of E1 in human MCF7 cells assessed as increase in p53 levels at 100 uM measured after 24 hrs by Western blot analysis; assay type: cell-based
[6] = biological target: T1, Ubiquitin-like modifier-activating enzyme 1 (Homo sapiens); experiment: Inhibition of recombinant human E1 expressed in Escherichia coli BL21(DE3) assessed as reduction in biotin-labelled ubiquitin-E1 conjugate formation pretreated for 30 mins followed by biotin-labelled ubiquitin addition and measured after 30 mins by Western blot analysis
[7] = biological target: Ubiquitin-conjugating enzyme E2 D2 (Homo sapiens) (UniProt P62837); experiment: Inhibition of E2 (unknown origin) assessed as reduction in biotin-labelled ubiquitin-E2 conjugate formation pretreated for 30 mins followed by biotin-labelled ubiquitin addition and measured after 60 mins in presence of E1 by Western blot analysis

| inhibition [1] | inhibition [2] | inhibition [3] | GI50 (MCF7) [µM] | inhibition [4] | inhibition [5] | inhibition [6] | inhibition [7] | Structure (SMILES) |
| --- | --- | --- | --- | --- | --- | --- | --- | --- |
| inactive | Active |  |  |  |  |  |  | COC(=O)CNC(=O)CCCc1ccc(OCCCNC(C)=O)c(CCCC(C)C)c1 |
| inactive | inactive |  |  |  |  |  |  | COC(=O)CNC(=O)CCCc1ccc(OCCCN)c(CCCC(C)C)c1 |
|  |  | Active | 63.4 | Active | Active | Dose-dependent effect | Dose-dependent effect | COC(=O)CNC(=O)CCCc1ccc(OCCCNC(=O)c2ccccc2)c(CCCC(C)C)c1 |
